Results on six molecules are retold here after US10494384B2, “Urea peptoid boric acid compound, pharmaceutical composition thereof, preparation method therefor, and uses thereof” (Peking University, priority 2015, dated 2019).

The subject of assay [1] is A549, human lung cancer. The assay is described as follows: preliminary anti-tumor screening in vitro, SRB method. It counts as cell-based. The note with it: read-out: inhibition rates (%) A549. As for the experimental part: (§1) The test methods used in this test example are routine methods for anti-tumor activities test in pharmaceutical area, for example, referring to the following reference: (J. Immunol Method, 1983, 65, 55).
(§2) Test models: A: MTT method (Hela, human cervical carcinoma); B: SRB method (BGC-823, […]); C: SRB method (MCF-7, breast cancer); D: SRB method (A549, human lung cancer); E: SRB method (PC3M1E8, prostate cancer).
(§3) Inhibition rates of the compounds were measured under concentrations of 0.1 μM, 1 μM or 10 μM.
(In SRB staining, fixed cells bind dye roughly in proportion to their protein.)

Assay [2] relates to MCF-7, breast cancer. Described as above. Type of assay: cell-based. The note with it: Homo sapiens, read-out: inhibition rates (%) MCF-7; for inhibition at 0.1 µM: MCF7, 0.1 μM; for inhibition at 1 µM: MCF7, 1 μM; for inhibition at 10 µM: MCF7, 10 μM. As to the method: as §1, §2, §3
The subject of assay [3] is BGC-823, liver cancer. The description is as above. It counts as cell-based. The note with it: Homo sapiens, read-out: inhibition rates (%) BGC-823. As to the method:
as §1, §2, §3

Assay [4] concerns the target T1, 20S proteasome extracted from rat liver (PGPH) (Rattus norvegicus, UniProt P28073+Q9JHW0).
T1 construct: 20S proteasome extracted from rat liver; from tissue; host or cells: rat liver
Kind of assay: inhibition of 20S proteasome, PGPH activity (fluorescent peptide). The note with it: rat liver 20S proteasome, 37° C., 1 h, read-out: inhibition rates (%) PGPH. It counts as biochemical. As to the method: (§4) 1 μg of 20S proteasome extracted from rat liver was incubated with a 100 μL solution containing various concentrations of the present compounds, 50 μM fluorescent peptides and 20 mM Tris-HCl at 37° C. for 1 h, respectively. […] 0.1% DMSO was used as a solvent control. Compared with the fluorescence of solvent control, an inhibition rate or IC50 value was calculated.

The subject of assay [5] is Hela, human cervical carcinoma. Kind of assay: preliminary anti-tumor screening in vitro, MTT method. It counts as cell-based. Conditions: read-out: inhibition rates (%) Hela. As to the method:
as §1, §2, §3
In general terms: Tetrazolium assays rely on reduction of a dye to a coloured formazan, in cell work by metabolically active cells.

Assay [6] addresses T2, 20S proteasome extracted from rat liver (T-L) (Rattus norvegicus, UniProt P40112+Q9JHW0).
T2 construct: 20S proteasome extracted from rat liver; from tissue; host or cells: rat liver
The assay is described as follows: inhibition of 20S proteasome, T-L activity (fluorescent peptide). It counts as biochemical. The note with it: rat liver 20S proteasome, 37° C., 1 h, read-out: inhibition rates (%) T-L. As to the method:
as §4

Assay [7] has as its target T3, 20S proteasome extracted from rat liver (CT-L) (Rattus norvegicus, UniProt P18421+P28075).
T3 construct: 20S proteasome extracted from rat liver; from tissue; host or cells: rat liver
Kind of assay: inhibition of 20S proteasome, CT-L activity (fluorescent peptide). Type of assay: biochemical. Conditions: rat liver 20S proteasome, 37° C., 1 h, read-out: inhibition rates (%) CT-L. As for the experimental part: as §4

As a reminder, the inhibition is the change of the read-out against control, counted positive when it falls. With `COc1ccc(NC(=O)[C@H](Cc2ccccc2)NC(=O)N[C@@H](CC(C)C)B(O)O)cc1` [Example 8, N-L-leucine borate-N′-(p-methoxy-phenylcarbamoyl)-L-phenylalanine-urea], the inhibition at 0.1 µM in assay [1] was 1.01%; in assay [2] it was 4.54%; in assay [3] it was 4.74%; in assay [5], 12.7%. The inhibition at 1 µM in assay [1] was determined as 8.26%; in assay [2], 8.51%; in assay [3], 5.62%; in assay [5], 13.4%. The inhibition at 10 µM amounted to 39.2% in assay [1], 16.4% in assay [2], 15.6% in assay [3] and 32.9% in assay [5]. In addition, the inhibition at 0.2 µM in assay [4] was 1.62%; in assay [6] it was -1.39%; in assay [7], 2.87%. The inhibition at 2 µM in assay [4] turned out to be 7.36%; in assay [6], 9.32%; in assay [7], 59.7%. The inhibition at 20 µM in assay [4] is 63.1%; in assay [6], 30.6%; in assay [7], 89.4%.
In the case of `CC(C)C[C@H](NC(=O)N[C@H](Cc1ccccc1)C(=O)Nc1cnccn1)B(O)O` [Example 10, N-L-leucine borate-N′-(pyrazin-2-ylcarbamoyl)-D-phenylalanine-urea], the inhibition at 0.1 µM in assay [1] turned out to be 3.45%; in assay [2] it was 8.1%; in assay [3], 4.44%; in assay [5], 11.8%. The inhibition at 1 µM was determined as 14.6% in assay [1], 12.7% in assay [2], 7.38% in assay [3] and 14.8% in assay [5]. Besides, the inhibition at 10 µM in assay [1] is 25%; in assay [2], 16%; in assay [3], 16.4%; in assay [5], 27%. Moreover, the inhibition at 0.2 µM in assay [4] was 19%; in assay [6], -12.3%; in assay [7], -4.19%. For the same molecule, the inhibition at 2 µM in assay [4] is 79.8%; in assay [6] it was -5.93%; in assay [7], 47.8%. The values for the inhibition at 20 µM in assay [4], in assay [6] and in assay [7] were 96%, 17.4% and 89%, respectively.
In the case of `CC(C)C[C@H](NC(=O)N[C@@H](CC(C)C)C(=O)N[C@@H](CC(C)C)C(=O)Nc1cnccn1)B(O)O` [Example 11, N-L-leucine borate-N′-(pyrazin-2-ylcarbamoyl)-L-leucyl-L-leucine-urea], the inhibition at 0.1 µM in assay [1] is -4.49%; in assay [2], 4.81%; in assay [3], 6.32%; in assay [5] it was 2.45%. Besides, the inhibition at 1 µM is 0.81% in assay [1], 7.23% in assay [2], 4.58% in assay [3] and 6.1% in assay [5]. For the same molecule, the inhibition at 10 µM worked out at 26.6% in assay [1], 16.1% in assay [2], 13.1% in assay [3] and 19.2% in assay [5]. Moreover, the inhibition at 0.2 µM in assay [4] is 12.8%; in assay [6] it was -8.06%; in assay [7], 5.79%. Moreover, the inhibition at 2 µM in assay [4] is 32.6%; in assay [6], -5.63%; in assay [7], 52.8%. Further, the inhibition at 20 µM in assay [4] is 81%; in assay [6], 25.2%; in assay [7], 92.5%.
As for `CC(C)C[C@H](NC(=O)N[C@@H](Cc1ccccc1)C(=O)N[C@@H](CC(C)C)C(=O)Nc1cnccn1)B(O)O` [Example 12, N-L-leucine borate-N′-(pyrazin-2-ylcarbamoyl)-L-leucyl-L-phenylalanine-urea], the inhibition at 0.1 µM in assay [1] was 1.55%; in assay [2], 1.77%; in assay [3] it was 6.01%; in assay [5] it was 12%. Further, the inhibition at 1 µM amounted to 45.5% in assay [1], 26.3% in assay [2], 36.3% in assay [3] and 35% in assay [5]. Moreover, the inhibition at 10 µM in assay [1] came to 69.7%; in assay [2], 50.8%; in assay [3] it was 50.2%; in assay [5], 46%. For the same molecule, the inhibition at 0.2 µM in assay [4] is 9.76%; in assay [6], -7.93%; in assay [7], 63.3%. For the same molecule, the inhibition at 2 µM stood at 73.2% in assay [4], 34.7% in assay [6] and 93.4% in assay [7]. The figures for the inhibition at 20 µM in assay [4], in assay [6] and in assay [7] were 96.7%, 67.8% and 95.8%, respectively.
For `CC(C)C[C@H](NC(=O)N[C@@H](Cc1ccccc1)C(=O)N[C@@H](CC(C)C)C(=O)Nc1cnccn1)B1OC(C)(C)C(C)(C)O1` [Example 13, N-L-leucine borate pinacol ester-N′-(pyrazin-2-ylcarbamoyl)-L-leucyl-L-phenylalanine-urea], the inhibition at 0.1 µM in assay [1] is -9.11%; in assay [2], -3.69%; in assay [3], 3.66%; in assay [5] it was 7.02%. Moreover, the inhibition at 1 µM amounted to 23.5% in assay [1], 8.39% in assay [2], 17.8% in assay [3] and 20.2% in assay [5]. The inhibition at 10 µM in assay [1] is 50.5%; in assay [2], 20%; in assay [3], 40%; in assay [5], 37.7%. For the same molecule, the inhibition at 0.2 µM in assay [4] is 5.28%; in assay [6] it was -3.11%; in assay [7], 45.4%. The inhibition at 2 µM in assay [4] is 53.4%; in assay [6] it was 13.8%; in assay [7], 91.3%. The inhibition at 20 µM in assay [4] was 96.8%; in assay [6], 49.4%; in assay [7], 95.4%.
For the molecule `CC(C)C[C@H](NC(=O)[C@H](Cc1ccccc1)NC(=O)Nc1cccc(OCc2ccccc2)c1)B(O)O` [Example 16, N-L-phenylalanyl-L-leucine borate-N′-(3-benzyloxy-phenylamine)-urea], the inhibition at 0.1 µM worked out at 5% in assay [1], 6.62% in assay [2], 6.01% in assay [3] and 9.91% in assay [5]. Besides, the inhibition at 1 µM stood at 36.2% in assay [1], 27.2% in assay [2], 34% in assay [3] and 34.1% in assay [5]. For the same molecule, the inhibition at 10 µM in assay [1] is 65%; in assay [2], 51.4%; in assay [3] it was 48.7%; in assay [5], 39.6%. In addition, the results for the inhibition at 0.2 µM in assay [4], in assay [6] and in assay [7] were -14.4%, -2.89% and -14.6%, respectively. In addition, the inhibition at 2 µM is -2.93% in assay [4], 12.3% in assay [6] and 86.6% in assay [7]. For the same molecule, the inhibition at 20 µM in assay [4] came to 92.4%; in assay [6], 62.2%; in assay [7] it was 94.5%.
